Measurements: ChEMBL document CHEMBL3102826 (J Med Chem, 2013)
Each block holds one compound with its values, some of them ahead of it. Activity calls are given as the source filed them. No cut-off for these calls is given here.

How the values were obtained:
[1] = target: T1, Dual specificity tyrosine-phosphorylation-regulated kinase 1A (Rattus norvegicus, UniProt Q63470); assay: Inhibition of rat recombinant 6xHis-tagged DYRK1A catalytic domain (1 to 502) expressed in Escherichia coli BL21 (DE3) using N-terminal fluorescein coupled KISGRLSPIMTEQ as substrate after 30 mins by HPLC analysis in presence of 50 uM ATP
[2] = target: T1, Dual specificity tyrosine-phosphorylation-regulated kinase 1A; assay: Inhibition of rat recombinant 6xHis-tagged DYRK1A catalytic domain (1 to 502) expressed in Escherichia coli BL21 (DE3) using N-terminal fluorescein coupled KISGRLSPIMTEQ as substrate after 30 mins by HPLC analysis in presence of 1 mM ATP
[3] = Cytotoxicity against human KB cells assessed as growth inhibition at 10^-6 M after 72 hrs by resazurin dye-based fluorimetric analysis relative to control; type: cell-based; conditions: read-out: GI
[4] = Cytotoxicity against human KB cells assessed as growth inhibition at 10^-5 M after 72 hrs by resazurin dye-based fluorimetric analysis relative to control; type: cell-based; conditions: read-out: GI
[5] = target: High affinity nerve growth factor receptor (Homo sapiens) (UniProt P04629); assay: Inhibition of human TRKA at 5 x 10^-8 M
Chain of High affinity nerve growth factor receptor (Homo sapiens) (P04629 33-796 limits assumed): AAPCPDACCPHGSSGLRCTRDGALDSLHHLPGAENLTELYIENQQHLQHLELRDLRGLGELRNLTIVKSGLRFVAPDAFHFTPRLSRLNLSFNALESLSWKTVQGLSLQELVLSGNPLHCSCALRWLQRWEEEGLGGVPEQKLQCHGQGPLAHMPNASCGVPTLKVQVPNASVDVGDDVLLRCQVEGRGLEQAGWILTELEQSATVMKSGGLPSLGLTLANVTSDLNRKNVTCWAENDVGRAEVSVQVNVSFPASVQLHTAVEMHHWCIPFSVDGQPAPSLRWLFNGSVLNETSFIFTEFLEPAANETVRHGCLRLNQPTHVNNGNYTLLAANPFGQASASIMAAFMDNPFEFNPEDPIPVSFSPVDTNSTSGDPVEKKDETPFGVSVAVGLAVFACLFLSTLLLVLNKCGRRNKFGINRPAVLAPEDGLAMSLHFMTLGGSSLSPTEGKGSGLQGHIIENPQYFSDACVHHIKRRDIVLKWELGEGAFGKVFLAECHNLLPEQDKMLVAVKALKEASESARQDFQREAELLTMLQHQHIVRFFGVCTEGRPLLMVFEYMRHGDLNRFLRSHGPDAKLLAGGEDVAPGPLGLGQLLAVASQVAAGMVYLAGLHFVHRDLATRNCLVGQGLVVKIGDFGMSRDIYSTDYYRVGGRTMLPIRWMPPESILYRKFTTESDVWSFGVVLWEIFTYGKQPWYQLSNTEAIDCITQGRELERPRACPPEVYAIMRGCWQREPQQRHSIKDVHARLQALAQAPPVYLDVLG

[6] = target: Serine/threonine-protein kinase pim-1 (Homo sapiens) (UniProt P11309); assay: Inhibition of human Pim1 kinase at 5 x 10^-8 M
Chain of Serine/threonine-protein kinase pim-1 (Homo sapiens) (P11309 whole entry, looked up): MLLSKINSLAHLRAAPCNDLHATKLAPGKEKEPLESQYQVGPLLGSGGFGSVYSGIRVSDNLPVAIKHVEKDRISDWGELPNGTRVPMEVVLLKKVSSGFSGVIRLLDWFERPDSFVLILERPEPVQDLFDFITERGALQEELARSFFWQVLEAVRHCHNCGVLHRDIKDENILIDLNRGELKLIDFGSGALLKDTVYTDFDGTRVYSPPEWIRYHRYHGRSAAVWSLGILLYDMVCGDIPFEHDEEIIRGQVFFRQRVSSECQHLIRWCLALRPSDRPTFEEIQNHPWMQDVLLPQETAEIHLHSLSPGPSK

[7] = target: Glycogen synthase kinase-3 beta (Homo sapiens) (UniProt P49841); assay: Inhibition of human GSK-3beta at 5 x 10^-8 M
Chain of Glycogen synthase kinase-3 beta (Homo sapiens) (P49841 whole entry, looked up): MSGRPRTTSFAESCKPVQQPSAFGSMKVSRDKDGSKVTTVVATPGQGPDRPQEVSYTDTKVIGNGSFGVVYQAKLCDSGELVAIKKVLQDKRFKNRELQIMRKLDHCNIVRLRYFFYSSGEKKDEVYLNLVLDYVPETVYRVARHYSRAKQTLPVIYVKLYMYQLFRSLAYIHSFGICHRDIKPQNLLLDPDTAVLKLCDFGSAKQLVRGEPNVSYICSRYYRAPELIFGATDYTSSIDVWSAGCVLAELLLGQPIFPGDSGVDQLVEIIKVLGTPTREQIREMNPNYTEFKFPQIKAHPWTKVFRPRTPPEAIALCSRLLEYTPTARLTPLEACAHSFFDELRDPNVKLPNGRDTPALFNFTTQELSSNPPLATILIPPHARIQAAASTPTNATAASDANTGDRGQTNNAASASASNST

[8] = target: Mitogen-activated protein kinase 1 (Homo sapiens) (UniProt P28482); assay: Inhibition of human ERK2 at 5 x 10^-8 M
Chain of Mitogen-activated protein kinase 1 (Homo sapiens) (P28482 whole entry, the tested form may be a part): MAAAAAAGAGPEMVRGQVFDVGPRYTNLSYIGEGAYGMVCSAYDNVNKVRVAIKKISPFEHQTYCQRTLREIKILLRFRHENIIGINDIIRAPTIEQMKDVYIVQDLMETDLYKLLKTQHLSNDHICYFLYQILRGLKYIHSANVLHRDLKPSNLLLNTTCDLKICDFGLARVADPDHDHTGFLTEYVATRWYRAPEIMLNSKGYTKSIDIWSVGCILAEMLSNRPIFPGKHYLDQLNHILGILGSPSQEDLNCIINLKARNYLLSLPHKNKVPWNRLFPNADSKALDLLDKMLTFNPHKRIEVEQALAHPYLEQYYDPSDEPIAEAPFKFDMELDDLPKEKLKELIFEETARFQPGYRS

[9] = target: T1, Dual specificity tyrosine-phosphorylation-regulated kinase 1A; assay: Competitive inhibition of rat recombinant 6xHis-tagged DYRK1A catalytic domain (1 to 502) expressed in Escherichia coli BL21 (DE3) using ATP as substrate by Michaelis-Menten plot analysis
[10] = target: T2, Dual specificity tyrosine-phosphorylation-regulated kinase 1A (Homo sapiens, UniProt Q13627); assay: Inhibition of DYRK1A (unknown origin) by HPLC analysis
[11] = target: RAC-alpha serine/threonine-protein kinase (Homo sapiens) (UniProt P31749); assay: Inhibition of human AKT1 at 5 x 10^-8 M
Chain of RAC-alpha serine/threonine-protein kinase (Homo sapiens) (P31749 whole entry, the tested form may be a part): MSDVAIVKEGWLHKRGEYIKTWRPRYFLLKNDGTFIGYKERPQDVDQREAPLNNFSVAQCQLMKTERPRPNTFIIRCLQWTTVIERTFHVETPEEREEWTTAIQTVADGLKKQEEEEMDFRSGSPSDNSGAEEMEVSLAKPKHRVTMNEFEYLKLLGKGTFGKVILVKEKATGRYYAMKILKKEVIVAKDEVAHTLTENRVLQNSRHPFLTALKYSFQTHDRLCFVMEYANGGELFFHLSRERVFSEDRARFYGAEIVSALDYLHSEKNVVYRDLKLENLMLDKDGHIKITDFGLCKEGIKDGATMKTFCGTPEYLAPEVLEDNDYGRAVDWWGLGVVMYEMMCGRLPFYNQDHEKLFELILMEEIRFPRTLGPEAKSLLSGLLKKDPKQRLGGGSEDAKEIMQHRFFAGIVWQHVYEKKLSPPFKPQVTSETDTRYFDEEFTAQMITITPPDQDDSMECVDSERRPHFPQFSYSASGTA

[12] = target: T2, Dual specificity tyrosine-phosphorylation-regulated kinase 1A; assay: Inhibition of human GST-fused DYRK1A expressed in Escherichia coli using KISGRLSPIMTEQ as substrate
[13] = target: T3, Dual specificity tyrosine-phosphorylation-regulated kinase 3 (Homo sapiens) (UniProt O43781); assay: Inhibition of human DYRK3 at 5 x 10^-8 M relative to control
T3 sequence (whole entry): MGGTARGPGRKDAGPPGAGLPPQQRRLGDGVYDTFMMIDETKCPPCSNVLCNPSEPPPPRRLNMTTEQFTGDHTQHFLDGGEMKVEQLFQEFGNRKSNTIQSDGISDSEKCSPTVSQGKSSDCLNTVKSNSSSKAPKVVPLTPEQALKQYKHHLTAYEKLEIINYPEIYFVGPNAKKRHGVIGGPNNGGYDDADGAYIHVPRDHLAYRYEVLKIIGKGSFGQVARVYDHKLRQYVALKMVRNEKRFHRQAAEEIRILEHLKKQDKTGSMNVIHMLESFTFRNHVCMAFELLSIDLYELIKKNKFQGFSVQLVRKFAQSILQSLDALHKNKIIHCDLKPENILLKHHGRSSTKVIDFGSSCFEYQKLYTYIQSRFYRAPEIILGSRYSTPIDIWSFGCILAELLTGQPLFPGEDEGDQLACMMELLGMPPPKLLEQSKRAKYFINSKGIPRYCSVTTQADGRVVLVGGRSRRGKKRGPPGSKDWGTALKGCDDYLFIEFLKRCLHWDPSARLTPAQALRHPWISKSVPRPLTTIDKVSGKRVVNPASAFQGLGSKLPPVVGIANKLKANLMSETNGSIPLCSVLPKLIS

[14] = target: T4, Dual specificity tyrosine-phosphorylation-regulated kinase 2 (Homo sapiens) (UniProt Q92630); assay: Inhibition of human DYRK2 at 5 x 10^-8 M relative to control
T4 sequence (whole entry): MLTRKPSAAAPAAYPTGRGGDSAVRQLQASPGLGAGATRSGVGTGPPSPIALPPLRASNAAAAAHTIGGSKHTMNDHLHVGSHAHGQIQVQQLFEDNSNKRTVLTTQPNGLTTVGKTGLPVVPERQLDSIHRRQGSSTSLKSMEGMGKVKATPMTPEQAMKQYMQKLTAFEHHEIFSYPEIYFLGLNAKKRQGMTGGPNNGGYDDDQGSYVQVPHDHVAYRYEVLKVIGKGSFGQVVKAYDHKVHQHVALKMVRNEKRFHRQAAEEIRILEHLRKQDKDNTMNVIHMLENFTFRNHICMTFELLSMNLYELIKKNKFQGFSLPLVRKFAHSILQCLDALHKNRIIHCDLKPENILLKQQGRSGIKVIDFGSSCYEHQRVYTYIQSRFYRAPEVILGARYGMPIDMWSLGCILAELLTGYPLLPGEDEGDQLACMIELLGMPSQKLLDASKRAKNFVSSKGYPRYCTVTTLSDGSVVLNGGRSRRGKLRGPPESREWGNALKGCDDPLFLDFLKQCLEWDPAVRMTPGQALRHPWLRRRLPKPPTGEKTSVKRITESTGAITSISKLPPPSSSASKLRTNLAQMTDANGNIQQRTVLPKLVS

[15] = target: CDK2/Cyclin A2 (Homo sapiens) (UniProt P24941+P20248); assay: Inhibition of human CDK2/cyclin A at 5 x 10^-8 M relative to control; type: protein-complex assay
[16] = target: Casein kinase I isoform alpha (Homo sapiens) (UniProt P48729); assay: Inhibition of human CK1alpha at 5 x 10^-8 M relative to control
Chain of Casein kinase I isoform alpha (Homo sapiens) (P48729 2-337 limits assumed): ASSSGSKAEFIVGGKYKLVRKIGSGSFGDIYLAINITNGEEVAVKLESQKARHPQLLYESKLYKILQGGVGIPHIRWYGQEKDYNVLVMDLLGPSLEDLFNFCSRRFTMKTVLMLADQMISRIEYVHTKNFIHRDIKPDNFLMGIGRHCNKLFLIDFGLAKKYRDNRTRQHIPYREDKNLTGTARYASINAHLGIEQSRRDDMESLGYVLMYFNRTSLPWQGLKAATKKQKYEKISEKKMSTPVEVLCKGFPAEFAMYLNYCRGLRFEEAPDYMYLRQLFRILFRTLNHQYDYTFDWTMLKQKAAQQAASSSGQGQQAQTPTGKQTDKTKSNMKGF

SMILES: c1ccc(-c2cnc3[nH]cc(-c4ccccc4)c3c2)cc1
IC50 [1]: 410 nM

SMILES: Oc1cccc(-c2cnc3[nH]cc(-c4ccccc4)c3c2)c1
IC50 [1]: 2700 nM

SMILES: Oc1ccc(-c2cc3c(-c4ccccc4)c[nH]c3cn2)cc1
IC50 [10]: 27400 nM

SMILES: COc1ccccc1-c1cnc2[nH]cc(-c3ccccc3)c2c1
IC50 [1]: 960 nM

SMILES: O=C(O[C@@H]1Cc2c(O)cc(O)cc2O[C@@H]1c1cc(O)c(O)c(O)c1)c1cc(O)c(O)c(O)c1 [EPIGALOCATECHIN GALLATE]
IC50 [12]: 330 nM

SMILES: COc1ccc(-c2cnc3[nH]cc(-c4ccccc4)c3c2)cc1
IC50 [1]: 960 nM

SMILES: COc1cccc(-c2cnc3[nH]cc(-c4ccccc4)c3c2)c1
IC50 [1]: 7490 nM

SMILES: COc1ccc(-c2cnc3[nH]cc(-c4ccccc4)c3c2)c(OC)c1
IC50 [1]: 1170 nM

SMILES: COc1ccc(-c2cnc3[nH]cc(-c4ccc(OC)cc4)c3c2)cc1
IC50 [1]: 1740 nM

SMILES: COc1ccc(-c2cnc3[nH]cc(-c4ccc(OC)c(OC)c4)c3c2)c(OC)c1
IC50 [1]: 2880 nM

SMILES: COc1ccc(-c2c[nH]c3ncc(-c4ccc(OC)c(OC)c4)cc23)cc1
IC50 [1]: 460 nM

SMILES: COc1ccc(-c2cnc3[nH]cc(-c4ccc(OC)c(OC)c4)c3c2)cc1OC
IC50 [1]: 57800 nM

SMILES: COc1ccc(-c2c[nH]c3ncc(-c4ccc(OC)cc4OC)cc23)cc1
IC50 [1]: 280 nM

SMILES: Oc1ccc(-c2cnc3[nH]cc(-c4ccccc4)c3c2)cc1
IC50 [1]: 330 nM

SMILES: COc1ccc(-c2cc3c(-c4ccccc4)c[nH]c3cn2)cc1
IC50 [10]: 17000 nM

SMILES: COc1cccc(-c2cnc3[nH]cc(-c4cccc(OC)c4)c3c2)c1
IC50 [1]: 14600 nM

SMILES: Oc1ccccc1-c1cnc2[nH]cc(-c3ccccc3)c2c1
IC50 [1]: 3590 nM

SMILES: COc1ccc(-c2cnc3[nH]cc(-c4ccccc4)c3c2)cc1OC
IC50 [1]: 3080 nM

SMILES: COc1ccc(OC)c(-c2cnc3[nH]cc(-c4ccc(OC)c(OC)c4)c3c2)c1
IC50 [1]: 1670 nM

Second part, led by results:

IC50 [2]: 5.5 nM
IC50 [1]: 3 nM
inhibition [5]: inactive
inhibition [6]: inactive
inhibition [7]: inactive
inhibition [8]: inactive
Ki [9]: < 2 nM
SMILES: Oc1ccc(-c2c[nH]c3ncc(-c4ccc(O)c(O)c4)cc23)cc1
inhibition at 72 h, 1 µM [3]: 56%
inhibition at 72 h, 10 µM [4]: 86%

IC50 [2]: 32 nM
IC50 [1]: 12.4 nM
inhibition [11]: Active
Ki [9]: 10.1 nM
SMILES: Oc1ccc(-c2cnc3[nH]cc(-c4ccc(O)c(O)c4)c3c2)cc1O
inhibition at 72 h, 1 µM [3]: 2%
inhibition at 72 h, 10 µM [4]: 11%

IC50 [2]: 43 nM
IC50 [1]: 23.1 nM
inhibition [5]: inactive
inhibition [6]: inactive
inhibition [7]: inactive
inhibition [8]: inactive
Ki [9]: 2.3 nM
SMILES: Oc1ccc(-c2cnc3[nH]cc(-c4ccc(O)cc4)c3c2)cc1
inhibition at 72 h, 1 µM [3]: 51%
inhibition at 72 h, 10 µM [4]: 95%

IC50 [1]: 105 nM
SMILES: Oc1cccc(-c2cnc3[nH]cc(-c4cccc(O)c4)c3c2)c1

IC50 [1]: 39.1 nM
Ki [9]: 12.1 nM
SMILES: Oc1ccc(O)c(-c2cnc3[nH]cc(-c4ccc(O)c(O)c4)c3c2)c1

IC50 [1]: 160 nM
SMILES: Oc1ccc(-c2cnc3[nH]cc(-c4ccccc4)c3c2)cc1O

IC50 [1]: 14.3 nM
Ki [9]: 7.6 nM
SMILES: Oc1ccc(-c2cnc3[nH]cc(-c4ccc(O)c(O)c4)c3c2)c(O)c1
inhibition at 72 h, 1 µM [3]: 0%
inhibition at 72 h, 10 µM [4]: 9%

IC50 [2]: 48 nM
IC50 [1]: 11.7 nM
inhibition [13]: < 50%
inhibition [14]: < 50%
inhibition [15]: < 50%
inhibition [16]: < 50%
inhibition [5]: inactive
inhibition [6]: inactive
inhibition [7]: inactive
inhibition [8]: inactive
Ki [9]: 5.5 nM
SMILES: Oc1ccc(-c2c[nH]c3ncc(-c4ccc(O)cc4O)cc23)cc1
inhibition at 72 h, 1 µM [3]: 21%
inhibition at 72 h, 10 µM [4]: 83%

IC50 [1]: 150 nM
SMILES: Oc1ccc(-c2cnc3[nH]cc(-c4ccccc4)c3c2)c(O)c1
